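Grown in 96-well plates, cells were treated for 48 hours with each compound at five concentrations. Insufficient inhibition: endpoint recorded as highest concentration tested. TGI is the concentration that stops growth completely.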
How the values were obtained:
Assay in all cases: NCI anticancer screen, dose series, 48 h
[1] = tested on: 786-0 renal
[2] = tested on: A549 NSCLC
[3] = tested on: ACHN renal
[4] = tested on: CAKI-1 renal
[5] = tested on: CCRF-CEM leukemia
[6] = tested on: COLO 205 colon
[7] = tested on: DLD-1 colon
[8] = tested on: DMS 114 small cell lung
[9] = tested on: EKVX NSCLC
[10] = tested on: HCC-2998 colon
[11] = tested on: HCT-116 colon
[12] = tested on: HCT-15 colon
[13] = tested on: HL-60(TB) leukemia
[14] = tested on: HOP-18 NSCLC
[15] = tested on: HOP-62 NSCLC
[16] = tested on: HT29 colon
[17] = tested on: IGROV1 ovarian
[18] = tested on: K-562 leukemia
[19] = tested on: KM12 colon
[20] = tested on: KM20L2 colon
[21] = tested on: LOX IMVI melanoma
[22] = tested on: LXFL 529 NSCLC
[23] = tested on: M14 melanoma
[24] = tested on: M19-MEL melanoma
[25] = tested on: MALME-3M melanoma
[26] = tested on: MOLT-4 leukemia
[27] = tested on: NCI-H226 lung
[28] = tested on: NCI-H23 lung
[29] = tested on: NCI-H460 lung
[30] = tested on: OVCAR-3 ovarian
[31] = tested on: OVCAR-4 ovarian
[32] = tested on: OVCAR-5 ovarian
[33] = tested on: OVCAR-8 ovarian
[34] = tested on: RPMI-8226 leukemia
[35] = tested on: RXF 393 renal
[36] = tested on: RXF-631 renal
[37] = tested on: SF-268 CNS
[38] = tested on: SF-295 CNS
[39] = tested on: SF-539 CNS
[40] = tested on: SK-MEL-2 melanoma
[41] = tested on: SK-MEL-28 melanoma
[42] = tested on: SK-OV-3 ovarian
[43] = tested on: SN12C renal
[44] = tested on: SNB-19 CNS
[45] = tested on: SNB-78 CNS
[46] = tested on: SR leukemia
[47] = tested on: SW-620 colon
[48] = tested on: TK-10 renal
[49] = tested on: U251 CNS
[50] = tested on: UACC-257 melanoma
[51] = tested on: UACC-62 melanoma
[52] = tested on: UO-31 renal
[53] = tested on: XF 498 CNS
[54] = tested on: A498 renal
[55] = tested on: NCI-H522 lung
[56] = tested on: SNB-75 CNS
[57] = tested on: DU-145 prostate
[58] = tested on: HOP-92 NSCLC

COc1ccc(/C=C/C(=O)c2sc(NC(=S)NC(=O)c3ccc(Cl)cc3)nc2C)cc1OC
TGI [1]: > 100 µM | TGI [2]: > 100 µM | TGI [3]: > 100 µM | TGI [4]: > 100 µM | TGI [5]: 88.1 µM | TGI [6]: > 100 µM | TGI [7]: > 100 µM | TGI [8]: > 100 µM | TGI [9]: > 100 µM | TGI [10]: > 100 µM | TGI [11]: > 100 µM | TGI [12]: > 100 µM | TGI [13]: > 100 µM | TGI [14]: > 100 µM | TGI [15]: > 100 µM | TGI [16]: > 100 µM | TGI [17]: > 100 µM | TGI [18]: 96.8 µM | TGI [19]: > 100 µM | TGI [20]: > 100 µM | TGI [21]: > 100 µM | TGI [22]: > 100 µM | TGI [23]: > 100 µM | TGI [24]: > 100 µM | TGI [25]: > 100 µM | TGI [26]: > 100 µM | TGI [27]: > 100 µM | TGI [28]: > 100 µM | TGI [29]: > 100 µM | TGI [30]: > 100 µM | TGI [31]: > 100 µM | TGI [32]: > 100 µM | TGI [33]: > 100 µM | TGI [34]: 62 µM | TGI [35]: > 100 µM | TGI [36]: > 100 µM | TGI [37]: > 100 µM | TGI [38]: > 100 µM | TGI [39]: > 100 µM | TGI [40]: > 100 µM | TGI [41]: > 100 µM | TGI [42]: > 100 µM | TGI [43]: > 100 µM | TGI [44]: > 100 µM | TGI [45]: > 100 µM | TGI [46]: > 100 µM | TGI [47]: > 100 µM | TGI [48]: > 100 µM | TGI [49]: > 100 µM | TGI [50]: > 100 µM | TGI [51]: 39.5 µM | TGI [52]: > 100 µM | TGI [53]: > 100 µM

N#CNC(=NCCO)NCCO
TGI [54]: > 100 µM | TGI [2]: > 100 µM | TGI [3]: > 100 µM | TGI [4]: > 100 µM | TGI [5]: > 100 µM | TGI [6]: > 100 µM | TGI [7]: > 100 µM | TGI [8]: > 100 µM | TGI [9]: > 100 µM | TGI [10]: > 100 µM | TGI [11]: > 100 µM | TGI [12]: > 100 µM | TGI [13]: > 100 µM | TGI [14]: > 100 µM | TGI [15]: > 100 µM | TGI [16]: > 100 µM | TGI [17]: > 100 µM | TGI [19]: > 100 µM | TGI [20]: > 100 µM | TGI [21]: > 100 µM | TGI [22]: > 100 µM | TGI [23]: > 100 µM | TGI [24]: > 100 µM | TGI [25]: > 100 µM | TGI [26]: > 100 µM | TGI [27]: > 100 µM | TGI [29]: > 100 µM | TGI [55]: > 100 µM | TGI [30]: > 100 µM | TGI [31]: > 100 µM | TGI [32]: > 100 µM | TGI [33]: > 100 µM | TGI [34]: > 100 µM | TGI [36]: > 100 µM | TGI [37]: > 100 µM | TGI [38]: > 100 µM | TGI [39]: > 100 µM | TGI [40]: > 100 µM | TGI [41]: > 100 µM | TGI [42]: > 100 µM | TGI [43]: > 100 µM | TGI [44]: > 100 µM | TGI [56]: > 100 µM | TGI [45]: > 100 µM | TGI [46]: > 100 µM | TGI [47]: > 100 µM | TGI [49]: > 100 µM | TGI [50]: > 100 µM | TGI [51]: > 100 µM | TGI [52]: > 100 µM | TGI [53]: > 100 µM

C=C=C(Sc1ccccc1)C(C)(C)O
TGI [1]: > 100 µM | TGI [54]: > 100 µM | TGI [3]: > 100 µM | TGI [5]: > 100 µM | TGI [6]: > 100 µM | TGI [7]: > 100 µM | TGI [57]: > 100 µM | TGI [10]: > 100 µM | TGI [11]: > 100 µM | TGI [12]: > 100 µM | TGI [13]: > 100 µM | TGI [14]: > 100 µM | TGI [58]: > 100 µM | TGI [16]: > 100 µM | TGI [17]: > 100 µM | TGI [18]: > 100 µM | TGI [19]: > 100 µM | TGI [20]: > 100 µM | TGI [21]: > 100 µM | TGI [22]: > 100 µM | TGI [23]: > 100 µM | TGI [24]: > 100 µM | TGI [25]: > 100 µM | TGI [26]: > 100 µM | TGI [27]: > 100 µM | TGI [28]: > 100 µM | TGI [29]: > 100 µM | TGI [55]: > 100 µM | TGI [30]: > 100 µM | TGI [31]: > 100 µM | TGI [32]: > 100 µM | TGI [33]: > 100 µM | TGI [34]: > 100 µM | TGI [35]: > 100 µM | TGI [36]: > 100 µM | TGI [37]: > 100 µM | TGI [38]: > 100 µM | TGI [39]: > 100 µM | TGI [40]: > 100 µM | TGI [41]: > 100 µM | TGI [42]: > 100 µM | TGI [43]: > 100 µM | TGI [44]: > 100 µM | TGI [56]: > 100 µM | TGI [46]: > 100 µM | TGI [47]: > 100 µM | TGI [48]: > 100 µM | TGI [49]: > 100 µM | TGI [50]: > 100 µM | TGI [51]: > 100 µM | TGI [52]: > 100 µM | TGI [53]: > 100 µM

— PubChem BioAssay (NCI)
